pKi: −log10 of the molar value. Read-outs that look alike come from different tables or passages of the source.
Experiments:
[1] = system: serotonin and dopamine levels in the cortex; assay: Microdialysis of serotonin and dopamine in cortex; assay type: in vivo; conditions: cortex of freely moving rats, 1 mg/kg subcutaneous, FIG. 1
Excerpt: Microdialysis is used to measure the concentration of small biological molecules in the extracellular fluid of the brain (Parent, M. et al. Methods 2001, 23, 11-20). A small probe, containing a fine microdialysis membrane at its tip, is introduced into the brain of an animal. A buffered solution is infused through the catheter. Small molecules, such as monoamine neurotransmitters, diffuse through the pores in the microdialysis membrane and are captured in the solution. The samples are then analyzed by analytical techniques to quantitate the amount of neurotransmitter in the brain extracellular fluid. This technique has been used extensively to measure the effects of SERT inhibitors on levels of extracellular serotonin.
Microdialysis was used to measure the levels of serotonin and dopamine in the brain of freely moving rats after subcutaneous injection of Example 8A. […] Results are represented as the average ±s.d. of n=2-4 rats.

H3 receptor = conditions: 60 min, average ± s.e.m.
Excerpt: In this model, animals were introduced into a cage containing a fully-automated water drinking monitoring system. […] Results are shown as averages ±s.e.m. of n=8-13 animals.

[2] = system: synaptic reuptake of 5-HT; assay: 5-HTP potentiation test (head twitches); assay type: in vivo; conditions: mice, 5 min interval, carbidopa 10 mg/kg + 5-HTP 40 mg/kg, average ± s.e.m.
[3] = biological target: T1, human H3 receptor (SK-N-MC cells) (Homo sapiens, UniProt Q9Y5N1); assay: Cyclic AMP accumulation (β-galactosidase reporter, Schild analysis vs histamine); assay type: cell-based; conditions: read-out: H3 pA2 (converted)
T1 construct: expressed in transfected cells; host or cells: SK-N-MC sublines with CRE-beta-galactosidase reporter

[4] = biological target: T2, cloned human H3 receptor, stably expressed in SK-N-MC cells (Homo sapiens, UniProt Q9Y5N1); assay: H3 receptor binding (N-[3H]-α-methylhistamine displacement); conditions: SK-N-MC membranes, 0.8 nM N-[3H]-α-methylhistamine
T2 construct: expressed in transfected cells

Rat SERT = biological target: T3, Rat SERT (Rattus norvegicus, UniProt P31652); assay: Rat brain SERT binding ([3H]-Citalopram displacement); conditions: rat brain membranes, 0.6 nM [3H]-Citalopram; read-out: Rat SERT Ki
T3 construct: A rat brain without cerebellum (Zivic Laboratories, Inc.—Pittsburgh, Pa.) was homogenized; tissue Zivic Laboratories, Inc; host or cells: rat brain without cerebellum, membranes

[5] = biological target: T4, human SERT (HEK293 membranes) (Homo sapiens, UniProt P31645); assay: Human SERT binding (3H-citalopram displacement)
T4 construct: purchased Perkin-Elmer; host or cells: HEK293 membranes
T4 sequence (P31645 whole entry): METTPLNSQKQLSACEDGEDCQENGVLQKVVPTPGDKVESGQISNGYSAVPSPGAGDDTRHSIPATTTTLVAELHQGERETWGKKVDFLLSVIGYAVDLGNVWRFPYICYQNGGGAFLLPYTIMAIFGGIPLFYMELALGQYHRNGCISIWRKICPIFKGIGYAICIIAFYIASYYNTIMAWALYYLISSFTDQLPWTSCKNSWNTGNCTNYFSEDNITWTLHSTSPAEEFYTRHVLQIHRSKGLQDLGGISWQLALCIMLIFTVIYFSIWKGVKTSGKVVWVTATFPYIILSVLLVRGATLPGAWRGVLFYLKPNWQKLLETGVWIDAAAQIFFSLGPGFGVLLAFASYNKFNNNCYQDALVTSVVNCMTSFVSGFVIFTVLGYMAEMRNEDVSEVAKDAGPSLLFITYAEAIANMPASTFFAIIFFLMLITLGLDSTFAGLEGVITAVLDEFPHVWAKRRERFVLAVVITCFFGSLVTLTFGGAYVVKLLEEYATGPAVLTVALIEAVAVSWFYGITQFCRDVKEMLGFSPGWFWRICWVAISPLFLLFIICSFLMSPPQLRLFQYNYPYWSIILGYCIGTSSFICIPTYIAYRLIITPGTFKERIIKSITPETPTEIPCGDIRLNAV
Description: Nonspecific binding was determined in the presence of 10 μM fluoxetine for the SERT. The membranes were washed and the radioactivity was counted as above.

T1 sequence (Q9Y5N1 whole entry): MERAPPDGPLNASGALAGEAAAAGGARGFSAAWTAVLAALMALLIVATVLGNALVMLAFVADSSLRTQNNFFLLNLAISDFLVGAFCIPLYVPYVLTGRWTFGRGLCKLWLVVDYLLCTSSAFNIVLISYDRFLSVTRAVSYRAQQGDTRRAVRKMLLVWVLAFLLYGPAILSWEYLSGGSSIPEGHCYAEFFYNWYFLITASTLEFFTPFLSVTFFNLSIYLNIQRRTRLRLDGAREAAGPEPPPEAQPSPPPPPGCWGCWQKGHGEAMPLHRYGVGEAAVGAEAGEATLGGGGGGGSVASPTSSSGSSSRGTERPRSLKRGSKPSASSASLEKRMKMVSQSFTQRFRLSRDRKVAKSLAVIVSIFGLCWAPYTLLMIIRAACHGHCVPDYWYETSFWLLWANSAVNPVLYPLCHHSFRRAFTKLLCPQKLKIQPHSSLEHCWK
T2 sequence (Q9Y5N1 whole entry): as above
T3 sequence (P31652 whole entry): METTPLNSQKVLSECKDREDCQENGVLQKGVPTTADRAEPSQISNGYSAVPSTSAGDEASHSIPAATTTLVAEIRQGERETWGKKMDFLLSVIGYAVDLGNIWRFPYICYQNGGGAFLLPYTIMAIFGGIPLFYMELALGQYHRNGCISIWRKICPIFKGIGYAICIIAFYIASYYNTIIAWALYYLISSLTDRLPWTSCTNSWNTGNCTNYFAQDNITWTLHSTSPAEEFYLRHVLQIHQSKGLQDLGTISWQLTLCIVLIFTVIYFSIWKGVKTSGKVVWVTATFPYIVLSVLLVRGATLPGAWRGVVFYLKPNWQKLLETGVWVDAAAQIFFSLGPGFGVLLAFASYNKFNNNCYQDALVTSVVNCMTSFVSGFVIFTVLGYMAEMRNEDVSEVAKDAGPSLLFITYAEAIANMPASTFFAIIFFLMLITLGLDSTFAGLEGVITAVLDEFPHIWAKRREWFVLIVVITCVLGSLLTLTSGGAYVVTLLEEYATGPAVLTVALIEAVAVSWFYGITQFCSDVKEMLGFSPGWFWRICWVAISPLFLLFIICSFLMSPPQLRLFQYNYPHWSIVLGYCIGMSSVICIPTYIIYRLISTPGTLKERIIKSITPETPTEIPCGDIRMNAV

| SMILES | dopamine (DA) levels by microdialysis [1] | serotonin (5-HT) levels by microdialysis [1] | Water Consumed (H3 receptor; Example 8A (1 mg/kg) i.p. + Imetit (1 mg/kg) after 24 h) [mL] | Water Consumed (H3 receptor; Example 8A (3 mg/kg) i.p. + Imetit (1 mg/kg) after 24 h) [mL] | Water Consumed (H3 receptor; Example 8A (10 mg/kg) i.p. + Imetit (1 mg/kg) after 24 h, p = 0.022 compared to imetit-treated animals) | head twitch frequency ([2]; 3 mg/kg, Group 1 (1 h)) | head twitch frequency ([2]; 3 mg/kg, Group 2 (24 h)) | head twitch frequency ([2]; 10 mg/kg, Group 1 (1 h)) | head twitch frequency ([2]; 10 mg/kg, Group 2 (24 h)) | Kb [3] [nM] | pKi [4] | pKi (Rat SERT) | pKi [5] |
| --- | --- | --- | --- | --- | --- | --- | --- | --- | --- | --- | --- | --- | --- |
| COc1ccc([C@H]2CN3CCC[C@H]3c3cc(OCCCN4CCCCC4)ccc32)cc1 (relative stereo) [Example 8A, Cis-6-(4-Methoxy-phenyl)-9-(3-piperidin-1-yl-propoxy)-1,2,3,5,6,10b-hexahydro-pyrrolo[2,1-a]isoquinoline] | slow, persistent increase | slow, persistent increase | 1.99 ± 0.68 | 1.65 ± 0.51 | *0.25 ± 0.15 mL | 6.0 ± 1.2 (3) | 24.0 ± 2.1 (4) | 2.0 ± 0.6 (3) | 41.3 ± 5.2 (3) |  |  |  |  |
| Clc1cccc([C@@H]2CN3CCC[C@H]3c3cc(OCCCN4CCCCC4)ccc32)c1 (relative stereo) [Example 11A, Cis-6-(3-Chloro-phenyl)-9-(3-piperidin-1-yl-propoxy)-1,2,3,5,6,10b-hexahydro-pyrrolo[2,1-a]isoquinoline] |  |  |  |  |  |  |  |  |  | 0.316 | 9.00 | 8.40 | 9.22 |
| Oc1ccc([C@H]2CN3CCC[C@H]3c3cc(OCCCN4CCCCC4)ccc32)cc1 (relative stereo) [Example 9A] |  |  |  |  |  |  |  |  |  | 0.316 | 8.70 | 8.05 | 7.24 |

Source: patent US8273762B2, “Hexahydro-pyrrolo-isoquinoline compounds” (Janssen Pharmaceutica NV, priority 2005, dated 2012)
